The values below come from patent US20260152498A1, “4,5,6,7-TETRAHYDRO-1H-PYRAZOLO[4,3-c]PYRIDINE COMPOUNDS AND DERIVATIVES AS USP1 INHIBITORS” (EXELIXIS, INC., priority 2022, published 2026).

The target of assay [1] is T1, USP1-UAF1 complex (Homo sapiens, UniProt O94782). The note with it: 1.2 µM.
Description: (§1) Biochemical Assay: The compounds were evaluated for their potential to inhibit USP1-UAF1 complex (Boston Biochem, Catalog: E568-050) using a fluorescence-based assay. The final concentrations of USP1-UAF1 complex protein and substrate Ubiquitin-Rhodamine-110 (R&D systems, Catalog U-555-050) used in the assay were 0.45 and 150 nM respectively. 50 mM HEPES pH. 7.5, 100 mM NaCl, 0.5 mM EDTA, 1 mM TCEP, 10% BSA, 0.01% Tween 20 buffer was used in the assay. The total assay volume was 20 μL. […] The final DMSO concentration in the assay was 1%. The compounds were pre-incubated with USP1-UAF1 complex at 25° C. for 15 min. After preincubation, required concentration of substrate was added and incubated at 25° C. for 60 min. Fluorescence at Excitation: 485 nm, Emission: 535 nm was measured in Victor-5 from Perkin Elmer.
(§2) To determine IC50 values, dose response curves were generated by plotting percentage inhibition as a function of inhibitor concentration and the data was fitted to sigmoidal non-linear regression equation (variable slope) using Graph Pad prism software V8.
(§3) The compounds were screened by the above-mentioned assay procedure.
Assay [2] addresses T1, USP1-UAF1 complex. Put plainly: biochemical.
Description: as §1, §2, §3

SMILES strings stand for the structures. pIC50: −log10 of the molar value.

T1 sequence (O94782 whole entry): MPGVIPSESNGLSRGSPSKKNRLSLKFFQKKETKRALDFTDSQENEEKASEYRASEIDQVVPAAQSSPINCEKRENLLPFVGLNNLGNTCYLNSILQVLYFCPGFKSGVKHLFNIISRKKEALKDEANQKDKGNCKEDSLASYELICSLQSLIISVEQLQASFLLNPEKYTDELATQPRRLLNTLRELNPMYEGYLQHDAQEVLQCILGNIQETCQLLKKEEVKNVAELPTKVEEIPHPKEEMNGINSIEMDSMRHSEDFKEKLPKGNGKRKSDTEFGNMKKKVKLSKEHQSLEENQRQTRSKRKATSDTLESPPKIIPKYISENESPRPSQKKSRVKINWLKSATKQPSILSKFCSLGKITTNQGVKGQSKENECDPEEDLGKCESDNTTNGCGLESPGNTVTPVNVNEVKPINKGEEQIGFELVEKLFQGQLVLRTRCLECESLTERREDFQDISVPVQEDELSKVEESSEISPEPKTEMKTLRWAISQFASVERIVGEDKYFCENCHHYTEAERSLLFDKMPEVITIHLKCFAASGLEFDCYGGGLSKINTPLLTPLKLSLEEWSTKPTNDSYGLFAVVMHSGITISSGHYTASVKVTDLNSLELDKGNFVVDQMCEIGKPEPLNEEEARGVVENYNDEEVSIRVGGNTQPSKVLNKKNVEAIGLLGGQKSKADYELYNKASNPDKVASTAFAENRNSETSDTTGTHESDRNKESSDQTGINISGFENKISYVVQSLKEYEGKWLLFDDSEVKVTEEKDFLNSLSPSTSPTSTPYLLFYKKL
T1 sequence (Q8TAF3 whole entry partner): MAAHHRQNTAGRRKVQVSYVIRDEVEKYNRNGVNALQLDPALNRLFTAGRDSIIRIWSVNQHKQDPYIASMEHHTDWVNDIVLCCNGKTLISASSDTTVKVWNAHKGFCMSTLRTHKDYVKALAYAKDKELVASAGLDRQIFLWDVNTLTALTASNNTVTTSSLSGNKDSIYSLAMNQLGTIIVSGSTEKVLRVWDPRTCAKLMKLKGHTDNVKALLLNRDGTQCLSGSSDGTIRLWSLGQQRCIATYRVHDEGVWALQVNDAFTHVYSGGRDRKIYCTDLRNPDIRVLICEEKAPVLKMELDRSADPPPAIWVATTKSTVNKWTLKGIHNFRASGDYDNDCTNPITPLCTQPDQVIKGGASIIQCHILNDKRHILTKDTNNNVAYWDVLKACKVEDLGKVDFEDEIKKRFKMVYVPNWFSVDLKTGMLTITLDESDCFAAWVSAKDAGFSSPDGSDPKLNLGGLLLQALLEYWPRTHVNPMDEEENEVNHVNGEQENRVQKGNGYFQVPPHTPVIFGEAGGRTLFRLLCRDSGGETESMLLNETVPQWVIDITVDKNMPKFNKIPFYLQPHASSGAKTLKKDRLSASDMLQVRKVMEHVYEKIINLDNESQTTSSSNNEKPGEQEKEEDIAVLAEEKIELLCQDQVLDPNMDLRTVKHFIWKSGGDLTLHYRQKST

On to `COc1ncnc(C2CC2)c1-c1nn(C)c2c1CN(c1ccc(-c3nc(C(F)(F)F)cn3C)cc1)CC2` [Compound 1, 3-(4-cyclopropyl-6-methoxypyrimidin-5-yl)-1-methyl-5-(4-(1-methyl-4-(trifluoromethyl)-1H-imidazol-2-yl)phenyl)-4,5,6,7-tetrahydro-1H-pyrazolo[4,3-c]pyridine], for which, on USP1-UAF1 complex [1], the inhibition (commonly the relative decrease from the control value, in per cent) came out at 98%. Besides, on USP1-UAF1 complex [2], the pIC50 (as a rule, the IC50 on a negative log10 scale, so that one unit is a factor of ten) is 7.00 to 7.30.
In the case of `COc1cccc(C2CC2)c1-c1nn(C)c2c1CN(c1ccc(-c3nc(C(F)(F)F)cn3C)cc1)CC2` [Compound 2, 3-(2-cyclopropyl-6-methoxyphenyl)-1-methyl-5-(4-(1-methyl-4-(trifluoromethyl)-1H-imidazol-2-yl)phenyl)-4,5,6,7-tetrahydro-1H-pyrazolo[4,3-c]pyridine], the pIC50 on USP1-UAF1 complex [2] is greater than 7.30.
Regarding `CC(C)c1ncccc1-c1nn(C)c2c1CN(c1ccc(-c3nc(C(F)(F)F)cn3C)cc1)CC2` [Compound 3, 3-(2-isopropylpyridin-3-yl)-1-methyl-5-(4-(1-methyl-4-(trifluoromethyl)-1H-imidazol-2-yl)phenyl)-4,5,6,7-tetrahydro-1H-pyrazolo[4,3-c]pyridine], the inhibition at USP1-UAF1 complex [1] was found to be 99%. The same compound had a negative-log IC50 (pIC50) on USP1-UAF1 complex [2] greater than 7.30.
Taken in the same sequence, the figures for `CC(C)c1ncccc1-c1nn(C)c2c1CN(c1ccc(-c3nc(C(F)(F)F)cn3C)nc1)CC2` [Compound 4, 3-(2-isopropylpyridin-3-yl)-1-methyl-5-(6-(1-methyl-4-(trifluoromethyl)-1H-imidazol-2-yl)pyridin-3-yl)-4,5,6,7-tetrahydro-1H-pyrazolo[4,3-c]pyridine] were 81% and less than 7.00.
On to `CCn1cc(C(F)(F)F)nc1-c1ccc(N2CCc3c(c(-c4c(OC)ncnc4C4CC4)nn3C)C2)cc1` [Compound 5, 3-(4-cyclopropyl-6-methoxypyrimidin-5-yl)-5-(4-(1-ethyl-4-(trifluoromethyl)-1H-imidazol-2-yl)phenyl)-1-methyl-4,5,6,7-tetrahydro-1H-pyrazolo[4,3-c]pyridine], for which the inhibition against USP1-UAF1 complex [1] was 100%. Besides, the pIC50 against USP1-UAF1 complex [2] is greater than 7.30.
`COc1ncnc(C2CC2)c1-c1nn(C)c2c1CN(c1ccc(-c3nc(C(F)(F)F)cn3C(C)C)cc1)CC2` [Compound 6, 3-(4-cyclopropyl-6-methoxypyrimidin-5-yl)-5-(4-(1-isopropyl-4-(trifluoromethyl)-1H-imidazol-2-yl)phenyl)-1-methyl-4,5,6,7-tetrahydro-1H-pyrazolo[4,3-c]pyridine] came in with an inhibition on USP1-UAF1 complex [1] of 100%. In addition, on USP1-UAF1 complex [2], the pIC50 was greater than 7.30.
Compound `COc1ncnc(C2CC2)c1-c1nn(C)c2c1CN(c1ccc(-c3nc(C(F)(F)F)cn3C3CC3)cc1)CC2` [Compound 7, 5-(4-(1-cyclopropyl-4-(trifluoromethyl)-1H-imidazol-2-yl)phenyl)-3-(4-cyclopropyl-6-methoxypyrimidin-5-yl)-1-methyl-4,5,6,7-tetrahydro-1H-pyrazolo[4,3-c]pyridine] registered an inhibition against USP1-UAF1 complex [1] of 100%. Moreover, the negative logarithm of the IC50 (pIC50) at USP1-UAF1 complex [2] was greater than 7.30.
On USP1-UAF1 complex [1], `COc1ncnc(C2CC2)c1-c1nn(C)c2c1CN(c1ccc(-c3nc(C(F)(F)F)cn3C3CCC3)cc1)CC2` [Compound 8, 5-(4-(1-cyclobutyl-4-(trifluoromethyl)-1H-imidazol-2-yl)phenyl)-3-(4-cyclopropyl-6-methoxypyrimidin-5-yl)-1-methyl-4,5,6,7-tetrahydro-1H-pyrazolo[4,3-c]pyridine] registered an inhibition of 100%. The same compound had a negative logarithm of the IC50 (pIC50) against USP1-UAF1 complex [2] greater than 7.30.
For `COCCn1cc(C(F)(F)F)nc1-c1ccc(N2CCc3c(c(-c4c(OC)ncnc4C4CC4)nn3C)C2)cc1` [Compound 9, 3-(4-cyclopropyl-6-methoxypyrimidin-5-yl)-5-(4-(1-(2-methoxyethyl)-4-(trifluoromethyl)-1H-imidazol-2-yl)phenyl)-1-methyl-4,5,6,7-tetrahydro-1H-pyrazolo[4,3-c]pyridine], in that order: 99% and greater than 7.30.
For `COc1ncnc(C2CC2)c1-c1nn(C)c2c1CN(c1ccc(-c3nc(C(F)(F)F)cn3CCN(C)C)cc1)CC2` [Compound 10, 2-(2-(4-(3-(4-cyclopropyl-6-methoxypyrimidin-5-yl)-1-methyl-1,4,6,7-tetrahydro-5H-pyrazolo[4,3-c]pyridin-5-yl)phenyl)-4-(trifluoromethyl)-1H-imidazol-1-yl)-N,N-dimethylethan-1-amine], in that order: 88% and less than 7.00.
Taken in the same sequence, the figures for `COc1ncnc(C2CC2)c1-c1nn(C)c2c1CN(c1ccc(-c3nc(C(F)(F)F)cn3C3CN(C)C3)cc1)CC2` [Compound 11, 3-(4-cyclopropyl-6-methoxypyrimidin-5-yl)-1-methyl-5-(4-(1-(1-methylazetidin-3-yl)-4-(trifluoromethyl)-1H-imidazol-2-yl)phenyl)-4,5,6,7-tetrahydro-1H-pyrazolo[4,3-c]pyridine] were 86% and less than 7.00.
Take `COc1ncnc(C2CC2)c1-c1nn(C)c2c1CN(c1ccc(-c3nc(C(F)(F)F)cn3C)nc1)CC2` [Compound 12, 3-(4-cyclopropyl-6-methoxypyrimidin-5-yl)-1-methyl-5-(6-(1-methyl-4-(trifluoromethyl)-1H-imidazol-2-yl)pyridin-3-yl)-4,5,6,7-tetrahydro-1H-pyrazolo[4,3-c]pyridine]: the inhibition against USP1-UAF1 complex [1] came to 98%. The negative-log IC50 (pIC50) at USP1-UAF1 complex [2] was greater than 7.30.
For `COc1ncnc(C2CC2)c1-c1nn(C)c2c1CN(c1ccc(-c3nc(C(F)(F)F)cn3C)cn1)CC2` [Compound 13, 3-(4-cyclopropyl-6-methoxypyrimidin-5-yl)-1-methyl-5-(5-(1-methyl-4-(trifluoromethyl)-1H-imidazol-2-yl)pyridin-2-yl)-4,5,6,7-tetrahydro-1H-pyrazolo[4,3-c]pyridine], in that order: 98% and greater than 7.30.
For `CCn1cc(C(F)(F)F)nc1-c1ccc(N2CCc3c(c(-c4c(OC)ncnc4C4CC4)nn3C)C2)nc1` [Compound 14, 3-(4-cyclopropyl-6-methoxypyrimidin-5-yl)-5-(5-(1-ethyl-4-(trifluoromethyl)-1H-imidazol-2-yl)pyridin-2-yl)-1-methyl-4,5,6,7-tetrahydro-1H-pyrazolo[4,3-c]pyridine], in that order: 99% and 7.00 to 7.30.
Taken in the same sequence, the figures for `COc1ncnc(C2CC2)c1-c1nn(C)c2c1CN(c1ccc(-c3nc(C(F)(F)F)cn3C(C)C)cn1)CC2` [Compound 15, 3-(4-cyclopropyl-6-methoxypyrimidin-5-yl)-5-(5-(1-isopropyl-4-(trifluoromethyl)-1H-imidazol-2-yl)pyridin-2-yl)-1-methyl-4,5,6,7-tetrahydro-1H-pyrazolo[4,3-c]pyridine] were 96% and 7.00 to 7.30.
With `COc1ncnc(C2CC2)c1-c1nn(C)c2c1CN(c1ccc(-c3nc(C(F)(F)F)cn3C3CCC3)cn1)CC2` [Compound 16, 5-(5-(1-cyclobutyl-4-(trifluoromethyl)-1H-imidazol-2-yl)pyridin-2-yl)-3-(4-cyclopropyl-6-methoxypyrimidin-5-yl)-1-methyl-4,5,6,7-tetrahydro-1H-pyrazolo[4,3-c]pyridine], the inhibition at USP1-UAF1 complex [1] stood at 99%. Besides, the pIC50 at USP1-UAF1 complex [2] was greater than 7.30.
For `COc1ncnc(C2CC2)c1-c1nn(C)c2c1CN(c1ccc(-n3nc(C(F)(F)F)cc3C)cc1)CC2` [Compound 17, 3-(4-cyclopropyl-6-methoxypyrimidin-5-yl)-1-methyl-5-(4-(5-methyl-3-(trifluoromethyl)-1H-pyrazol-1-yl)phenyl)-4,5,6,7-tetrahydro-1H-pyrazolo[4,3-c]pyridine], in that order: 100% and greater than 7.30.
Taken in the same sequence, the figures for `COc1ncnc(C2CC2)c1-c1nn(C)c2c1CN(c1ccc(-n3nc(C(F)(F)F)cc3OC)cc1)CC2` [Compound 19, 3-(4-cyclopropyl-6-methoxypyrimidin-5-yl)-5-(4-(5-methoxy-3-(trifluoromethyl)-1H-pyrazol-1-yl)phenyl)-1-methyl-4,5,6,7-tetrahydro-1H-pyrazolo[4,3-c]pyridine] were 99% and greater than 7.30.
Consider `CCOc1cc(C(F)(F)F)nn1-c1ccc(N2CCc3c(c(-c4c(OC)ncnc4C4CC4)nn3C)C2)cc1` [Compound 20, 3-(4-cyclopropyl-6-methoxypyrimidin-5-yl)-5-(4-(5-ethoxy-3-(trifluoromethyl)-1H-pyrazol-1-yl)phenyl)-1-methyl-4,5,6,7-tetrahydro-1H-pyrazolo[4,3-c]pyridine], for which, on USP1-UAF1 complex [1], the inhibition was found to be 99%. At USP1-UAF1 complex [2], this compound showed a negative logarithm of the IC50 (pIC50) greater than 7.30.
Consider `COc1ncnc(C2CC2)c1-c1nn(C)c2c1CN(c1ccc(-c3nc(Cl)cn3C)cc1)CC2` [Compound 21, 5-(4-(4-chloro-1-methyl-1H-imidazol-2-yl)phenyl)-3-(4-cyclopropyl-6-methoxypyrimidin-5-yl)-1-methyl-4,5,6,7-tetrahydro-1H-pyrazolo[4,3-c]pyridine], for which, on USP1-UAF1 complex [1], the inhibition is 97%. Besides, the pIC50 against USP1-UAF1 complex [2] is greater than 7.30.
`COc1ncccc1-c1ccc(N2CCc3c(c(-c4c(OC)ncnc4C4CC4)nn3C)C2)nc1` [Compound 22, 3-(4-cyclopropyl-6-methoxypyrimidin-5-yl)-5-(2'-methoxy-[3,3′-bipyridin]-6-yl)-1-methyl-4,5,6,7-tetrahydro-1H-pyrazolo[4,3-c]pyridine] came in with an inhibition against USP1-UAF1 complex [1] of 39%. The compound also gave a negative-log IC50 (pIC50) at USP1-UAF1 complex [2] of less than 7.00.
Taken in the same sequence, the figures for `COc1ncnc(C2CC2)c1-c1nn(C)c2c1CN(c1ccc(-c3c(C)noc3C)cn1)CC2` [Compound 23, 4-(6-(3-(4-cyclopropyl-6-methoxypyrimidin-5-yl)-1-methyl-1,4,6,7-tetrahydro-5H-pyrazolo[4,3-c]pyridin-5-yl)pyridin-3-yl)-3,5-dimethylisoxazole] were 3% and less than 7.00.
For `CCn1nc(-c2c(OC)ncnc2C2CC2)c2c1CCN(c1ccc(-c3nc(C(F)(F)F)cn3C)cc1)C2` [Compound 24, 3-(4-cyclopropyl-6-methoxypyrimidin-5-yl)-1-ethyl-5-(4-(1-methyl-4-(trifluoromethyl)-1H-imidazol-2-yl)phenyl)-4,5,6,7-tetrahydro-1H-pyrazolo[4,3-c]pyridine], in that order: 98% and greater than 7.30.
